This note sets out measurements from patent US10499643B2, “Synergistic herbicidal composition and the method of controlling the growth of undesired plants” (JIANGSU ROTAM CHEMISTRY CO., LTD, priority 2016, dated 2019).

The test system of this test is gramineous weeds, broadleaf weeds, sedge weeds. Description: Post-emergence test: stem and leaf treatment of potted weeds, fresh weight inhibition rate, synergy by Colby's equation. It counts as in vivo. The procedure: The assessment on the synergistic effect of mixing two or more herbicidal active ingredients is determined based on the Colby's equation as described in “Calculation Synergistic and Antagonistic Response of Herbicide Combinations (Weeds 15/1 (1967), S. R. Colby)”.
Use stem and leaf treatment for potted grown plant (NY/T 1155.4-2006): fill a plastic pot (6 cm height, 9 cm diameter) with a quantity of soil and sow 15 to 20 seeds of monocotyledonous weeds and dicotyledonous weeds in the plastic pot, cover it with 0.5 to 1 cm thick of fine soil and then put it in greenhouse for cultivation. When weeds grow to the 2 to 4 leave stage, conduct the stem and leaf spray treatment with 1 mL herbicidal solution on each pot and repeat four times for each treatment and leave some pots untreated as control group. Keep the treated pots in a greenhouse for cultivation and observe the growing status of target weeds periodically. Conduct the visual test on the target weeds regarding the damage symptoms and growth inhibition effect after 21 days. Weigh up the fresh weight above the ground or plant fresh weight and evaluate the toxicity of the herbicidal formulation on target weeds based on the fresh weight inhibition rate of the target.
Prepare the following three formulations according to specific weight percentages: 1. Pyroxasulfone; 2. […] After that, dilute above formulations with water to obtain diluted formulations.
Conduct visual assessment the damage symptom and growth inhibition status of target weeds after 21 days. Weigh up the fresh weight above the ground and calculate the inhibition rate of fresh weight (%).
The assessment on the synergistic effect of mixing two or more herbicidal active ingredients is determined based on the Colby's equation as described in “Calculation Synergistic and Antagonistic Response of Herbicide Combinations (Weeds 15/1(1967), S. R. Colby)”.
Wherein, X represents Fresh Weight Inhibition Rate of Pyroxasulfone when applied alone at certain application rate against target weeds;

The structures appear in SMILES notation.

Take `Cn1nc(C(F)(F)F)c(CS(=O)(=O)C2=NOC(C)(C)C2)c1OC(F)F` [Pyroxasulfone, 3-[5-(difluoromethoxy)-1-methyl-3-(trifluoromethyl)pyrazol-4-ylmethylsulfonyl]-4,5-dihydro-5,5-dimethyl-1,2-oxazole]: where the note is “post-emergence, Pyroxasulfone 1 g ai/ha alone, read-out: Herbicidal Activity % Experimental Data”, the inhibition at 1 g/ha was determined as 11%. Also, the inhibition at 5 g/ha (post-emergence, Pyroxasulfone 5 g ai/ha alone, read-out: Herbicidal Activity % Experimental Data) came to 22%. In addition, for the setting “post-emergence, Pyroxasulfone 10 g ai/ha alone, read-out: Herbicidal Activity % Experimental Data”, the inhibition at 10 g/ha stood at 40%. Also, the inhibition at 25 g/ha (post-emergence, Pyroxasulfone 25 g ai/ha alone, read-out: Herbicidal Activity % Experimental Data) is 49%. For the setting “post-emergence, Pyroxasulfone 50 g ai/ha alone, read-out: Herbicidal Activity % Experimental Data”, the inhibition at 50 g/ha was determined as 63%.

`COC(=O)c1sccc1S(=O)(=O)NC(=O)Nc1nc(C)nc(OC)n1` [Thifensulfuron methyl]: the “Herbicidal Activity % Experimental Data” value reads like this: (Thifensulfuron methyl 1 g ai/ha alone) 0%; (Thifensulfuron methyl 5 g ai/ha alone) 15.5%; (Thifensulfuron methyl 10 g ai/ha alone) 31.2%; (Thifensulfuron methyl 25 g ai/ha alone) 55.1%; (Thifensulfuron methyl 50 g ai/ha alone) 60.3%.
